System: formaldehyde pain
Test: formaldehyde pain test in guinea pigs
Type: in vivo
Conditions: Cavia porcellus, po, guinea pig
Method: Moreover, certain products according to the invention were studied in the formaldehyde pain test in guinea pigs. The ED50 of the product is determined in this way.

| Structure (SMILES) | ED50 [mg/kg] |
| --- | --- |
| COc1ccccc1[C@H](C)C(=O)N1C[C@@H]2C[C@@H](CC#N)C[C@@](O)(c3ccccc3OC)[C@@H]2C1 [Example 1, (3aS,4S,6S,7aR)-6-Cyanomethyl-4-(2-methoxyphenyl)-2-[(S)-2-(2-methoxylphenyl)propionyl]perhydroisoindol-4-ol] | 1 |
| COc1ccccc1CC(=O)N1C[C@@H]2C[C@@H](CC#N)C[C@@](O)(c3ccccc3OC)[C@@H]2C1 [Example 5, (3aS, 4S, 6S, 7aR)-6-Cyanomethyl-4-(2-methoxyphenyl)-2-[(2-methoxyphenyl)acetyl]perhydroisoindol-4-ol] | 3 to 30 |
| COc1ccccc1[C@]1(O)C[C@H](CC#N)C[C@H]2CN(C(=O)[C@@H](N)c3ccccc3)C[C@H]21 [Example 9, (3aS,4S,6S,7aR)-2-[(S)-2-Amino-2-phenylacetyl]-6-cyanomethyl-4-(2-methoxyphenyl)perhydroisoindol-4-ol] | 3 to 30 |

System: increase in capillary permeability brought about by septide (a substance P agonist)
Test: inhibition of the increase in capillary permeability brought about by septide
Type: in vivo
Conditions: Cavia porcellus, po; guinea pig, capillary permeability increase induced by septide
Text: The study of certain isoindole derivatives of general formula (I) in the technique of A. Saria et al., Arch.

| Structure (SMILES) | ED50 [mg/kg] |
| --- | --- |
| COc1ccccc1[C@]1(O)C[C@H](CC#N)C[C@H]2CN(C(=O)Cc3ccc(Cl)c(Cl)c3)C[C@H]21 [Example 7, (3aS,4S,6S,7aR)-6-Cyanomethyl-2-[(3,4-dichlorophenyl)acetyl]-4-(2-methoxyphenyl)perhydroisoindol-4-ol] | 0.36 |
| COc1ccccc1[C@H](C)C(=O)N1C[C@@H]2C[C@@H](CC#N)C[C@@](O)(c3ccccc3OC)[C@@H]2C1 [Example 1, (3aS,4S,6S,7aR)-6-Cyanomethyl-4-(2-methoxyphenyl)-2-[(S)-2-(2-methoxylphenyl)propionyl]perhydroisoindol-4-ol] | 0.004 |
| COc1ccccc1[C@]1(O)C[C@H](CC#N)C[C@H]2CN(C(=O)[C@@H](C)c3ccccc3O)C[C@H]21 [Example 4, (3aS,4S,6S,7aR)-6-Cyanomethyl-2-[(S)-2-(2-hydroxyphenyl)propionyl]-4-(2-methoxyphenyl)perhydroisoindol-4-ol] | 0.004 |
| COc1ccccc1[C@@]1(O)C[C@@H](CC#N)C[C@@H]2CN(C(=O)Cc3ccccc3N3CCCC3)C[C@@H]21 (racemic) [Example 2, (3aRS,4RS,6RS,7aSR)-6-Cyanomethyl-4-(2-methoxyphenyl)-2-{[2-(1-pyrrolidinyl)phenyl]acetyl} perhydroisoindol-4-ol] | 1 |
| N#CC[C@@H]1C[C@@H]2CN(C(=O)Cc3ccccc3O)C[C@@H]2[C@@](O)(c2ccccc2F)C1 (racemic) [Example 14, (3aRS,4RS,6SR,7aSR)-6-Cyanomethyl-4-(2-fluorophenyl)-2-(2-hydroxyphenylacetyl)perhydroisoindol-4-ol] | 0.2 to 0.4 |
| COc1ccccc1CC(=O)N1C[C@@H]2C[C@@H](CC#N)C[C@@](O)(c3ccccc3OC)[C@@H]2C1 [Example 5, (3aS, 4S, 6S, 7aR)-6-Cyanomethyl-4-(2-methoxyphenyl)-2-[(2-methoxyphenyl)acetyl]perhydroisoindol-4-ol] | 0.32 |
| COc1ccccc1CC(=O)N1C[C@@H]2C[C@@H](CNC#N)C[C@@](O)(c3ccccc3OC)[C@@H]2C1 (relative stereo) [Example 18, (3aRS,4RS,6SR,7aSR)-6-Cyanoaminomethyl-4-(2-methoxyphenyl)-2-[(2-methoxyphenyl)acetyl]perhydroisoindolol] | 1 |
| COc1ccccc1C(N)C(=O)N1C[C@@H]2C[C@@H](CC#N)C[C@@](O)(c3ccccc3OC)[C@@H]2C1 (stereo partly drawn) [Example 10] | 0.05 |
| COc1ccccc1[C@H](C)C(=O)N1C[C@@H]2C[C@@H](CC#N)C[C@@](O)(c3ccccc3F)[C@@H]2C1 [Example 13, (3aS,4S,6S,7aR)-6-Cyanomethyl-4-(2-fluorophenyl)-2-[(S)-2-(2-methoxyphenyl)propionyl]perhydroisoindol-4-ol] | 0.02 |
